33 compounds from ChEMBL document CHEMBL2016440, “Overcoming fluconazole resistance in Candida albicans clinical isolates with tetracyclic indoles” (Bioorg Med Chem Lett, 2012) can be followed below.

Calls of active or inactive are those of the source. No cut-off for these calls is given here.

Data set [1] concerns Candida albicans. Put plainly: Antifungal activity against fluconazole-resistant Candida albicans isolate 2 assessed as growth inhibition after 48 hrs by alamar blue fluorescence assay in presence of 8 ug/ml fluconazole. It is filed as functional, organism-based. The conditions noted are these: isolate 2, 48 h.
Data set [2] has as its system Candida albicans. Kind of data set: Antifungal activity against fluconazole-resistant Candida albicans isolate 8 assessed as growth inhibition after 48 hrs by alamar blue fluorescence assay in presence of 8 ug/ml fluconazole. It is filed as functional, organism-based. The conditions noted are these: isolate 8, 48 h.
Data set [3] relates to NIH3T3. Kind of data set: Cytotoxicity against mouse 3T3 cells. It is filed as cell-based.
For data set [4], the system named is NIH3T3. Put plainly: Cytotoxicity against mouse 3T3 cells at 0.2 to 26 uM. It is filed as cell-based. The conditions noted are these: nih3t3, 26 µM.
Data set [5] concerns Candida albicans. Kind of data set: Antifungal activity against fluconazole-sensitive Candida albicans SC5314 assessed as growth inhibition at 1 ug/ml after 24 hrs by alamar blue fluorescence assay. In kind it is functional, organism-based.
For data set [6], the system named is Candida albicans. Put plainly: Antifungal activity against Candida albicans assessed as growth inhibition after 48 hrs by alamar blue fluorescence assay. It is filed as functional, organism-based.
For data set [7], the system named is Candida albicans. Kind of data set: Antifungal activity against fluconazole-sensitive Candida albicans SC5314 assessed as growth inhibition at 7.5 ug/ml after 24 hrs by alamar blue fluorescence assay. It is filed as functional, organism-based.
Data set [8] has as its system Candida albicans. Put plainly: Antifungal activity against fluconazole-sensitive Candida albicans SC5314 assessed as growth inhibition at 7.5 ug/ml after 24 hrs by alamar blue fluorescence assay in presence of fluconazole. It is filed as functional. The conditions noted are these: SC5314, 24 h, read-out: GI.
In data set [9] the test system is Candida albicans. Put plainly: Antifungal activity against fluconazole-sensitive Candida albicans SC5314 assessed as growth inhibition at 8 ug/ml after 24 hrs by alamar blue fluorescence assay. It is filed as functional, organism-based.

As for `CC1CCN(C(=O)Cn2c3ccc(F)cc3c3nc4n(c(=O)c32)CCCS4)CC1`, the results for the IC50 in the data set with Candida albicans [1] and in the data set on Candida albicans [2] were 2.7 µM and 11.7 µM, respectively.
As for `O=C(Cn1c2ccc(F)cc2c2nc3n(c(=O)c21)CCS3)N1CCCC1`, the IC50 turned out to be 0.6 µM in the data set on Candida albicans [1] and 18.9 µM in the data set with Candida albicans [2].
Consider `CC1CCN(C(=O)Cn2c3ccccc3c3nc4n(c(=O)c32)CCCS4)CC1`, for which the IC50 worked out at 12.1 µM with Candida albicans [1] and 21.3 µM with Candida albicans [2].
The corresponding values for `O=C(Cn1c2ccccc2c2nc3n(c(=O)c21)CCS3)NCCc1ccc(Cl)cc1` are more than 10 µM and 23.4 µM.
As to `CCN(CC)C(=O)Cn1c2ccc(F)cc2c2nc3n(c(=O)c21)CCS3`, the IC50 in the data set with Candida albicans [1] is 0.5 µM; with Candida albicans [2] it was more than 26 µM.
For `O=C(Cn1c2ccc(F)cc2c2nc3n(c(=O)c21)CCS3)N1CCC(F)(F)CC1`, in that order: 0.7 µM and more than 26 µM.
The corresponding values for `O=C(O)Cn1c2ccc(F)cc2c2nc3n(c(=O)c21)CCS3` are more than 26 µM and more than 26 µM.
The corresponding values for `Oc1c2nc3ccccc3c-2nc2n1CCS2` are more than 10 µM and 15.7 µM.
On to `COc1ccc2c(c1)c1nc3n(c(=O)c1n2CC(=O)N1CCC(Cc2ccccc2)CC1)CCS3`, for which the IC50 in the data set on Candida albicans [1] and in the data set with Candida albicans [2] was more than 26 µM throughout.
For the compound `O=C(Cn1c2ccccc2c2nc3n(c(=O)c21)CCS3)N1CCOCC1`, the values for the IC50 with Candida albicans [1] and in the data set on Candida albicans [2] were 4.3 µM and 6.6 µM, respectively.
For `COc1ccc2c(c1)c1nc3n(c(=O)c1n2CC(=O)N1CCC(C)CC1)CCS3`, in that order: more than 26 µM and more than 26 µM.
The corresponding values for `O=C(Cn1c2ccccc2c2ccncc21)N1CCCCC1` are more than 26 µM and more than 26 µM.
For `O=C(Cn1c2ccc(F)cc2c2nc3n(c(=O)c21)CCS3)N1CC=CC1`, in that order: 0.5 µM and more than 26 µM.
Regarding `COc1ccc(NC(=O)Cn2c3ccccc3c3nc4n(c(=O)c32)CCS4)cc1`, the IC50 with Candida albicans [1] is more than 10 µM; with Candida albicans [2], more than 26 µM.
Turning to `CC1CCN(C(=O)Cn2c3ccccc3c3nc4n(c(=O)c32)CCS4)CC1`, the IC50 in the data set on Candida albicans [1] was 3.2 µM; in the data set on Candida albicans [2], 5.5 µM; in the data set on NIH3T3 [3], more than 26 µM. Also, the Activity result in the data set with NIH3T3 [4] is recorded as “Non-toxic”.
Regarding `Oc1c2nc3ccc(F)cc3c-2nc2n1CCS2`, the 50% inhibitory concentration (IC50) in the data set on Candida albicans [1] was determined as 3.8 µM; in the data set with Candida albicans [2], 7.1 µM.
Consider `O=C(O)Cn1c2ccccc2c2nc3n(c(=O)c21)CCS3`, for which the IC50 in the data set on Candida albicans [1] is more than 10 µM; with Candida albicans [2] it was more than 26 µM.
With `O=C(Cn1c2ccc(F)cc2c2nc3n(c(=O)c21)CCS3)N1CCC(F)(F)C1`, the IC50 in the data set on Candida albicans [1] and in the data set on Candida albicans [2] was 1.1 µM each time.
Regarding `O=C(Cn1c2ccc(F)cc2c2nc3n(c(=O)c21)CCS3)N1CCCCCC1`, the IC50 with Candida albicans [1] is 2.2 µM; with Candida albicans [2] it was more than 26 µM.
Turning to `O=C(Cn1c2ccc(F)cc2c2nc3n(c(=O)c21)CCS3)N1CCCCC1`, the 50% inhibitory concentration (IC50) in the data set with Candida albicans [1] is 0.5 µM; with Candida albicans [2], more than 26 µM.
On to `C[C@@H]1[C@H](O)[C@@H](C)/C=C/C=C/C=C/C=C/C=C/C=C/C=C/[C@H](O[C@@H]2O[C@H](C)[C@@H](O)[C@H](N)[C@@H]2O)C[C@@H]2O[C@](O)(C[C@@H](O)C[C@@H](O)[C@H](O)CC[C@@H](O)C[C@@H](O)CC(=O)O[C@H]1C)C[C@H](O)[C@H]2C(=O)O`, for which, in the data set on Candida albicans [5], the “growth inhibition (GI)” value was “Active”.
Take `O=C(Cn1c2ccccc2c2nc3n(c(=O)c21)CCS3)N1CCCC1`: the IC50 in the data set on Candida albicans [1] was 1.1 µM; in the data set on Candida albicans [2], 1.9 µM; in the data set on NIH3T3 [3] it was more than 26 µM; in the data set with Candida albicans [6], more than 26 µM. Besides, in the data set with Candida albicans [7], the “growth inhibition (GI)” value was “inactive”. Besides, the inhibition of growth at 7.5 µg/mL with Candida albicans [8] was determined as 96%.
For `COC(=O)Cn1c2ccc(F)cc2c2nc3n(c(=O)c21)CCS3`, the IC50 with Candida albicans [1] came to 3.5 µM; in the data set with Candida albicans [2], 6 µM.
The corresponding values for `O=C(Cn1c2ccccc2c2nc3n(c(=O)c21)CCS3)N1CC=CC1` are 1.8 µM and 3.1 µM.
The corresponding values for `O=C(Cn1c2ccccc2c2nc3n(c(=O)c21)CCS3)N1CCC(F)(F)C1` are 5.9 µM and 10.2 µM.
Consider `OC(Cn1cncn1)(Cn1cncn1)c1ccc(F)cc1F`, for which the “growth inhibition (GI)” value in the data set with Candida albicans [9] was “inactive”.
Consider `CCN(CC)C(=O)Cn1c2ccccc2c2nc3n(c(=O)c21)CCS3`, for which the IC50 was 2.3 µM in the data set with Candida albicans [1] and more than 26 µM in the data set with Candida albicans [2].
Regarding `O=C(Cn1c2ccccc2c2nc3n(c(=O)c21)CCS3)N1CCC(F)(F)CC1`, the half-inhibitory concentration (IC50) with Candida albicans [1] was more than 10 µM; in the data set with Candida albicans [2], more than 26 µM.
With `O=C(Cn1c2ccccc2c2nc3n(c(=O)c21)CCS3)N1CCCCC1`, the IC50 was 1.9 µM in the data set with Candida albicans [1] and 2.9 µM with Candida albicans [2].
Regarding `CC1CCN(CCn2c3ccccc3c3nc4n(c(=O)c32)CCS4)CC1`, the IC50 in the data set on Candida albicans [1] was more than 10 µM; in the data set on Candida albicans [2], more than 26 µM.
For `CN1CCN(C(=O)Cn2c3ccccc3c3nc4n(c(=O)c32)CCS4)CC1`, in that order: 7.1 µM and 22.5 µM.
For `COC(=O)Cn1c2ccccc2c2nc3n(c(=O)c21)CCS3`, in that order: 7.9 µM and 13.3 µM.
For `CC1(O)CN(C(=O)Cn2c3ccccc3c3nc4n(c(=O)c32)CCS4)C1`, the IC50 with Candida albicans [1] was more than 10 µM; in the data set on Candida albicans [2] it was more than 26 µM.
